Experimental data reported in patent EP0791591B1, “Benzothiophenes, formulations containing same, and methods for their préparation” (ELI LILLY AND COMPANY, priority 1996, dated 1997).
Where two headings read alike, the source gives them in different places. Marks after values point to notes of the source that are not given here. Values belong to the compound of their own block, whether it stands above or below them.

Legend:
ovariectomized rats [1] = test: Osteoporosis Test Procedure: 35-day ovariectomized rat, femur density; assay type: in vivo, Sprague Dawley rats; conditions: oral, in 20% hydroxypropyl β-cyclodextrin, daily for 35 days; result in words
Method: Following the General Preparation Procedure, infra, the rats are treated daily for 35 days (6 rats per treatment group) and sacrificed by carbon dioxide asphyxiation on the 36th day. The 35 day time period is sufficient to allow maximal reduction in bone density, measured as described herein. At the time of sacrifice, the uteri are removed, dissected free of extraneous tissue, and the fluid contents are expelled before determination of wet weight in order to confirm estrogen deficiency associated with complete ovariectomy. […] The uteri are then placed in 10% neutral buffered formalin to allow for subsequent histological analysis. The right femurs are excised and digitilized x-rays generated and analyzed by an image analysis program (NIH image) at the distal metaphysis. The proximal aspect of the tibiae from these animals are also scanned by quantitative computed tomography. In accordance with the above procedures, compounds of the present invention and ethynyl estradiol (EE2) in 20% hydroxypropyl β-cyclodextrin are orally administered to test animals.

[2] = system: Uterine Eosinophil Peroxidase (EPO); test: Uterine Eosinophil Peroxidase (EPO) Assay in ovariectomized rats; conditions: for Uterine Eosinophil (Vmax): oral, daily for 4 days, eosinophil peroxidase Vmax
Text: (§1) Seventy-five day old female Sprague Dawley rats (weight range of 200 to 225g) are obtained from Charles River Laboratories (Portage, MI). The animals are either bilaterally ovariectomized (OVX) or exposed to a Sham surgical procedure at Charles River Laboratories, and then shipped after one week. Upon arrival, they are housed in metal hanging cages in groups of 3 or 4 per cage and have ad libitum access to food (calcium content approximately 0.5%) and water for one week. Room temperature is maintained at 22.2° ± 1.7° C with a minimum relative humidity of 40%. The photoperiod in the room is 12 hours light and 12 hours dark.
(§2) Dosing Regimen Tissue Collection. After a one week acclimation period (therefore, two weeks post-OVX) daily dosing with test compound is initiated. 17α-ethynyl estradiol or the test compound is given orally, unless otherwise stated, as a suspension in 1% carboxymethylcellulose or dissolved in 20% cyclodextrin. Animals were dosed daily for 4 days. Following the dosing regimen, animals are weighed and anesthetized with a ketamine: Xylazine (2:1, V:V) mixture and a blood sample is collected by cardiac puncture. The animals are then sacrificed by asphyxiation with CO2, the uterus is removed through a midline incision, and a wet uterine weight is determined.
(§3) Uterine Eosinophil Peroxidase (EPO) Assay. Uteri are kept at 4° C until time of enzymatic analysis. The uteri are then homogenized in 50 volumes of 50 mM Tris buffer (pH - 8.0) containing 0.005% Triton X-100. Upon addition of 0.01% hydrogen peroxide and 10 mM O-phenylenediamine (final concentrations) in Tris buffer, increase in absorbance is monitored for one minute at 450 nm. The presence of eosonophils in the uterus is an indication of estrogenic activity of a compound. The maximal velocity of a 15 second interval is determined over the initial, linear portion of the reaction curve.

ovariectomized rats [3] = test: Uterine weight in ovariectomized rat post-menopausal model, 4 days oral dosing; conditions: daily for 4 days, increase versus ovariectomized controls
Text: as §1, §2

Serum cholesterol = Serum cholesterol analysis in ovariectomized rats; assay type: in vivo, Sprague Dawley rats; conditions: oral, daily for 4 days, decrease versus ovariectomized controls
Text: as §1, §2
Cholesterol Analysis. Blood samples are allowed to clot at room temperature for 2 hours, and serum is obtained following centrifugation for 10 minutes at 3000 rpm. Serum cholesterol is determined using a Boehringer Mannheim Diagnostics high performance cholesterol assay. Briefly the cholesterol is oxidized to cholest-4-en-3-one and hydrogen peroxide. The hydrogen peroxide is then reacted with phenol and 4-aminophenazone in the presence of peroxidase to produce a p-quinone imine dye, which is read spectrophotemetrically at 500 nm. Cholesterol concentration is then calculated against a standard curve. The entire assay is automated using a Biomek Automated Workstation.

[4] = system: MCF-7 breast adenocarcinoma cells (ATCC HTB 22); test: MCF-7 Proliferation Assay (tritiated thymidine); assay type: cell-based; conditions: Homo sapiens, MCF7; MCF-7 cells, 48 hours with drug, tritiated thymidine pulse 4 hours
Method: MCF-7 breast adenocarcinoma cells (ATCC HTB 22) are maintained in MEM (minimal essential medium, phenol red-free, Sigma, St. Louis, MO) supplemented with 10% fetal bovine serum (FBS) (V/V), L-glutamine (2 mM), sodium pyruvate (1 mM), HEPES {(N-[2-hydroxyethyl]piperazine-N'-[2-ethanesulfonic acid]10 mM}, non-essential amino acids and bovine insulin (1 ug/mL) (maintenance medium). Ten days prior to assay, MCF-7 cells are switched to maintenance medium supplemented with 10% dextran coated charcoal stripped fetal bovine serum (DCC-FBS) assay medium) in place of 10% FBS to deplete internal stores of steroids. MCF-7 cells are removed from maintenance flasks using cell.dissociation medium (Ca++/Mg++ free HBSS (phenol red-free) supplemented with 10 mM HEPES and 2 mM EDTA). Cells are washed twice with assay medium and adjusted to 80,000 cells/mL. Approximately 100 µL (8,000 cells) are added to flat-bottom microculture wells (Costar 3596) and incubated at 37° C in a 5% CO2 humidified incubator for 48 hours to allow for cell adherence and equilibration after transfer. Serial dilutions of drugs or DMSO as a diluent control are prepared in assay medium and 50 µL transferred to triplicate microcultures followed by 50 µL assay medium for a final volume of 200 µL. […] Samples are counted by liquid scintillation using a Wallac BetaPlace β counter. […]

physchem = conditions: 66% dmf
[5] = system: Uterine Eosinophil Peroxidase (EPO); conditions: rat, in vivo
Text: as §1, §2, §3

pKa (physchem): 6.39
Uterine Eosinophil (Vmax) [5]: 11.2
Compound: COc1ccc(-c2sc3cc(OC)ccc3c2C(=O)c2ccc(OCC[N+]3([O-])CCCCC3)cc2)cc1 [Example 2]
Serum Cholest. % Dec. (Serum cholesterol; 1.0 mg/kg): 65.7* %

pKa (physchem): 6.15
Uterine Eosinophil (Vmax) [5]: 21.7*
Compound: CC[N+]([O-])(CC)CCOc1ccc(C(=O)c2c(-c3ccc(O)cc3)sc3cc(O)ccc23)cc1 [Example 3, [2-(4-Hydroxyphenyl)-6-hydroxybenzo[b]thien-3-yl][4-[2-(N, N-diethyl)ethoxy]phenyl]methanone N-oxide]
Serum Cholest. % Dec. (Serum cholesterol; 1.0 mg/kg): 64.2* %

Uterine Eosinophil (Vmax) [5]: 4.1
Compound: O=C(c1ccc(OCC[N+]2([O-])CCOCC2)cc1)c1c(-c2ccc(O)cc2)sc2cc(O)ccc12 [Example 4, [2-(4-Hydroxyphenyl)-6-hydroxybenzo[b]thien-3-yl][4-[2-(1-morpholino)ethoxy]phenyl]methanone N-oxide]
Serum Cholest. % Dec. (Serum cholesterol; 1.0 mg/kg): 56.2* %

pKa (pKa determination): 6.49
Compound: [O-][N+]1(CCOc2ccc(Cc3c(-c4ccc(O)cc4)sc4cc(O)ccc34)cc2)CCCCC1 [Example 7, [2-(4-Hydroxyphenyl)-6-hydroxybenzo[b]thien-3-yl][4-[2-(1-piperidinyl)ethoxy]phenyl]methane N-oxide]

Continued, compound first:

Compound: C#C[C@]1(O)CC[C@H]2[C@@H]3CCc4cc(O)ccc4[C@H]3CC[C@@]21C [EE2, 17α-ethynyl estradiol, reference compound]
bone loss (femur density) (ovariectomized rats [1]): prevented this loss
Uterine Eosinophil (Vmax) ([2]; 0.1 mg/kg): 205.8*
eosinophil infiltration into the uterus ([2]; result in words, stromal layer of ovariectomized rat uteri): substantial and expected increase
Uterine Weight % Inc (ovariectomized rats [3]; 0.1 mg/kg): 207.5* %
Serum Cholest. % Dec. (Serum cholesterol; 0.1 mg/kg): 87.3* %

Compound: O=C(c1ccc(OCC[N+]2([O-])CCCCC2)cc1)c1c(-c2ccc(O)cc2)sc2cc(O)ccc12 [Example 1, [2-(4-Hydroxyphenyl)-6-hydroxybenzo[b]thien-3-yl][4-[2-(1-piperidinyl)ethoxy]phenyl]methanone N-oxide]
pKa (pKa determination; 66% dmf): 6.28
Uterine Eosinophil (Vmax) ([2]; 0.1 mg/kg): 4.4
Uterine Eosinophil (Vmax) ([2]; 1.0 mg/kg): 4.6
Uterine Eosinophil (Vmax) ([2]; 10.0 mg/kg): 2.5
Uterine Weight % Inc (ovariectomized rats [3]; 0.1 mg/kg): 31.2* %
Uterine Weight % Inc (ovariectomized rats [3]; 1.0 mg/kg): 29.6* %
Uterine Weight % Inc (ovariectomized rats [3]; 10.0 mg/kg): 8.3%
IC50 [4]: ~1000 nM
Serum Cholest. % Dec. (Serum cholesterol; 0.1 mg/kg): 44.9* %
Serum Cholest. % Dec. (Serum cholesterol; 1.0 mg/kg): 68.7* %
Serum Cholest. % Dec. (Serum cholesterol; 10.0 mg/kg): 70.3* %

Compound: [O-][N+]1(CCOc2ccc(C(O)c3c(-c4ccc(O)cc4)sc4cc(O)ccc34)cc2)CCCCC1 (stereo not shown) [Example 6]
pKa (pKa determination): 6.41

Compound: [2-(4-n-Butylsulfonoylphenyl)-6-n-butylsulfonoylbenzo[b]thien-3-yl][4-[2-(1-piperidinyl)ethoxy]phenyl]methanone N-oxide [Example 5]
Serum Cholest. % Dec. (Serum cholesterol; 1.0 mg/kg): 74.9* %
Uterine Eosinophil (Vmax) [5]: 4.7
